Here are results for three compounds from US20260014147A1, “STAT6 DEGRADERS” (Gilead Sciences, Inc., priority 2024, published 2026).

As a reminder, the EC50 is the concentration at which the effect is half-maximal. Read a low EC50 as higher potency in that assay.

The subject of this test is Eotaxin-3 (CCL26) release in human whole blood stimulated with IL-4. In words: Human Whole Blood Eotaxin-3 Assay (IL-4 stimulated, inhibition of eotaxin-3 release). Format: cell-based. Particulars: Homo sapiens, EC50 provided for test compounds with >80% Emax, geometric mean across assay runs and batches. Here is the method: This was a human whole blood assay using recombinant human Interleukin 4 to stimulate the blood and measuring the ability of the test compounds to inhibit eotaxin-3 release. The biological activities of the test compounds have been tested in human whole blood stimulated with IL-4 measuring Eotaxin-3 release. The test compounds were added to 384 well clear flat-bottom plate in a 4-fold serial dilution in triplicates using a liquid handler. Human whole blood stabilized in lithium-heparin tubes was added in a volume of 65 uL per well, resulting in a final DMSO concentration of 0.5%. The plate is incubated for 2 h at 37° C. under 5% CO2/95% air. Subsequently, 5 μL of recombinant human IL-4 (R&D Systems, cat #204-ILB) was added to the wells to a final concentration of 400 pM. The plate was incubated for 48 h at 37° C. under 5% CO2/95% air. The plate was spun down for 10 minutes at 500×g and 20 uL supernatant was harvested and transferred to a 384 well v-bottom plate using a liquid handler and stored at −20° C. until further analysis. 10 uL supernatant was used to measure the level of Eotaxin-3 (CCL26) using Human Eotaxin-3 MSD kit from Mesocsale (Cat #K251UEK-4). The assay was performed according to the manufacture instructions.
The data from the human whole blood eotaxin-3 assay is shown below for Examples 2q11, 2110, and 2c49 (where the effect in % is plotted against the test concentration in M on a log-scale).

As to `C[C@H]1CN(c2ncc(NC3CCC(=O)NC3=O)cc2F)CCN1CC1CCN(C(=O)c2ccc(C3CCN([C@@H](C)c4cc5c(-c6ccc(N)nc6)ccnc5n4C)CC3)cc2)CC1` (stereo partly drawn) [Example 2c55, 3-((6-((S)-4-((1-(4-(1-((S)-1-(4-(6-aminopyridin-3-yl)-1-methyl-1H-pyrrolo[2,3-b]pyridin-2-yl)ethyl)piperidin-4-yl)benzoyl)piperidin-4-yl)methyl)-3-methylpiperazin-1-yl)-5-fluoropyridin-3-yl)amino)piperidine-2,6-dione], the midpoint of the response, the EC50, lay at 247 nM. This lies in the sub-micromolar range. `COCc1nc2cc(-c3ccnc4c3cc(CN3CCC(c5ccc(C(=O)N6CCn7nc(CN8CCC(c9ncc(NC%10CCC(=O)NC%10=O)cc9F)CC8)cc7C6)cc5)CC3)n4C)ccc2[nH]1` (stereo not drawn) [Example 2q8, 3-((5-fluoro-6-(1-((5-(4-(1-((4-(2-(methoxymethyl)-1H-benzo[d]imidazol-5-yl)-1-methyl-1H-pyrrolo[2,3-b]pyridin-2-yl)methyl)piperidin-4-yl)benzoyl)-4,5,6,7-tetrahydropyrazolo[1,5-a]pyrazin-2-yl)methyl)piperidin-4-yl)pyridin-3-yl)amino)piperidine-2,6-dione] gave a concentration for a half-maximal effect (EC50) of 25.1 nM. For the compound `C[C@@H](c1cc2c(-c3ccc(N)nc3)ccnc2n1C)N1CCC(c2ccc(C(=O)N3CCn4nc(CN5CCN(c6ccc(NC7CCC(=O)NC7=O)cc6F)CC5)cc4C3)cc2)CC1` (stereo partly drawn) [Example 2q15, 3-((4-(4-((5-(4-(1-((S)-1-(4-(6-aminopyridin-3-yl)-1-methyl-1H-pyrrolo[2,3-b]pyridin-2-yl)-ethyl)piperidin-4-yl)benzoyl)-4,5,6,7-tetrahydropyrazolo[1,5-a]pyrazin-2-yl)methyl)piperazin-1-yl)-3-fluoro-phenyl)amino)piperidine-2,6-dione], the EC50 came out at 37.8 nM.
